Measurements taken from patent publication US12279621B1, “Insect neuropeptides 3” (Solasta Bio Limited, priority 2023, dated 2025).

Tested on: Spodoptera frugiperda
Assay: Lepidoptera artificial diet assay
Format: in vivo
Conditions: unformulated peptide, final concentration 1×10^−4 M in diet, one L1 larva per cell, n=10, 168 hrs; compared to negative control vehicle and DDT
Description: One larva was assayed per cell. (n=10). Frontier Lepidoptera artificial diet was made up by preparing agar at 1% and then mixing it with artificial diet powder. Peptide solution was aliquoted in 10 cells and diet poured straight onto it. The final concentration of the peptide was 1×10^−4 M, and each peptide was aliquoted in 10 cells. Once the diet solidified and cooled down, one L1 larvae was infested in each cell. The trays were sealed with heat and let larva were allowed to develop for 168 hrs. Finally, pupation and mortality were scored for. Lepidoptera artificial diet assays were performed with SB-P-80, and compared to a negative control vehicle and the insecticide dichlorodiphenyltrichloroethane (DDT).

With “[Hy]-NADEDQQQSVDFTPRL-[NH2] (H-NADEDQQQSVDFTPRL-NH2) [SB-P-80, pyrokinin peptide according to the invention]” the “activity (pupation and mortality scored) in lepidoptera artificial diet assay” value was “much higher activity”.
